Like-named read-outs stand apart in the source and are kept apart here.
Experiments:
[1] = target: T1, wild type HIV-1 protease (Human immunodeficiency virus type 1 group M subtype B, UniProt P04585); assay: Ki against wild type (WT) HIV-1 protease; format: biochemical
T1 construct: over 45 of the 99 amino acids of the HIV protease monomer

[2] = target: HIV-1 protease Mutant 8 (Human immunodeficiency virus type 1, UniProt P04585); assay: Ki against HIV-1 protease Mutant 8; format: biochemical
[3] = system: HIV-1 isolates, Mutant 9; assay: In vitro drug sensitivity of HIV-1 laboratory isolates, Mutant 9; format: cell-based
Experimental: (§1) In Vitro Drug Sensitivity of HIV-1 Laboratory Isolates to PIs
(§2) The sensitivities of HIV-1 isolates against compounds of the invention were determined as previously described with minor modifications (Shiraska et al., Proc. Natl. Acad. Sci. USA, 92, 2398-2402 (1995)).

[4] = system: HIV-1 isolates, Mutant 8; assay: In vitro drug sensitivity of HIV-1 laboratory isolates, Mutant 8; format: cell-based
Experimental: as §1, §2

[5] = system: HIV-1 isolates, WT; assay: In vitro drug sensitivity of HIV-1 laboratory isolates, WT; format: cell-based
Experimental: as §1, §2

[6] = target: HIV-1 protease Mutant 9 (Human immunodeficiency virus type 1, UniProt P04585); assay: Ki against HIV-1 protease Mutant 9; format: biochemical
[7] = Human immunodeficiency virus 1, read-out: IC50 Mutant 9
[8] = Human immunodeficiency virus 1, read-out: IC50 Mutant 8
[9] = Human immunodeficiency virus 1, HIV-1 isolate WT
[10] = Mutant 9, read-out: IC50 Mutant 9
[11] = Mutant 8, read-out: IC50 Mutant 8

| SMILES | Ki ([1]; wild type HIV-1 protease) | Ki ([2]; HIV-1 protease Mutant 8) | IC50 [3, 7] | IC50 [4, 8] | IC50 [5, 9] | Ki ([6]; HIV-1 protease Mutant 9) | Ki ([1]; WT) | Ki ([2]; Mutant 8) | IC50 ([5]; Human immunodeficiency virus 1) | Ki ([6]; Mutant 9) | IC50 [3, 10] | IC50 [4, 11] | IC50 ([5]; WT) |
| --- | --- | --- | --- | --- | --- | --- | --- | --- | --- | --- | --- | --- | --- |
| Cc1ccc(S(=O)(=O)N(C)Cc2noc3ccc(S(=O)(=O)N(CC(C)C)CC(O)C(Cc4ccccc4)NC(=O)OC4COC5OCCC45)cc23)cc1 (centres unmarked) [Compound 211] | < 0.1 nM | < 0.3 nM | 300 nM | 51 nM | 2.1 nM | 1.7 nM |  |  |  |  |  |  |  |
| CCCNc1n[nH]c2ccc(S(=O)(=O)N(CC(C)C)CC(O)C(Cc3ccccc3)NC(=O)OC3COC4OCCC34)cc12 (centres unmarked) [Compound 305] |  |  | 180 nM | 30 nM |  |  | < 0.1 nM | < 0.3 nM | 16 nM | 0.66 nM |  |  |  |
| CCOC(=O)C(C)NCc1noc2ccc(S(=O)(=O)N(CC(C)C)CC(O)C(Cc3ccccc3)NC(=O)OC3COC4OCCC34)cc12 (centres unmarked) [Compound 206] | < 0.1 nM | < 0.3 nM | 160 nM | 30 nM | 5 nM | 0.33 nM |  |  |  |  |  |  |  |
| CCCCNCc1noc2ccc(S(=O)(=O)N(CC(C)C)CC(O)C(Cc3ccccc3)NC(=O)OC3COC4OCCC34)cc12 (centres unmarked) [Compound 231] | < 0.1 nM | < 0.3 nM | 60 nM | 23 nM | 4.3 nM | 0.29 nM |  |  |  |  |  |  |  |
| CC(C)CN(CC(O)C(Cc1ccccc1)NC(=O)OC1COC2OCCC12)S(=O)(=O)c1ccc2occ(CNS(=O)(=O)C(C)C)c2c1 (centres unmarked) [Compound 115] |  |  | 64 nM | 18 nM |  |  | < 0.1 nM | < 0.3 nM | 6 nM | 0.27 nM |  |  |  |
| CCC(=O)NCc1coc2ccc(S(=O)(=O)N(CC(C)C)C[C@@H](O)[C@H](Cc3ccccc3)NC(=O)OC3COC4OCCC34)cc12 (some centres unmarked) [Compound 113] |  |  |  |  |  |  | < 0.1 nM | < 0.3 nM |  | < 0.1 nM | 50 nM | 20 nM | 7 nM |
| CC(C)CN(CC(O)C(Cc1ccccc1)NC(=O)OC1COC2OCCC12)S(=O)(=O)c1ccc2onc(COC(=O)C(C)C)c2c1 (centres unmarked) [Compound 215] | < 0.1 nM | < 0.3 nM | 55 nM | 15 nM | 11 nM | 0.75 nM |  |  |  |  |  |  |  |
| CC(C)CN(CC(O)C(Cc1ccccc1)NC(=O)OC1COC2OCCC12)S(=O)(=O)c1ccc2onc(CS(C)(=O)=O)c2c1 (centres unmarked) [Compound 243] | < 0.1 nM | < 0.3 nM | 120 nM | 24 nM | 8.2 nM | 0.96 nM |  |  |  |  |  |  |  |
| CC(C)CN(C[C@@H](O)[C@H](Cc1ccccc1)NC(=O)OC1COC2OCCC12)S(=O)(=O)c1ccc2occ(CNC(=O)c3cccnc3)c2c1 (some centres unmarked) [Compound 118] |  |  |  |  |  |  | < 0.1 nM | < 0.3 nM |  | 0.12 nM | 39 nM | 35 nM | 30 nM |
| COCc1noc2ccc(S(=O)(=O)N(CC(C)C)CC(O)C(Cc3ccccc3)NC(=O)OC3COC4OCCC34)cc12 (centres unmarked) [Compound 244] | < 0.1 nM | < 0.3 nM | 305 nM | 40 nM | 4.1 nM | 0.49 nM |  |  |  |  |  |  |  |
| CCOC(=O)NCc1noc2ccc(S(=O)(=O)N(CC(C)C)CC(O)C(Cc3ccccc3)NC(=O)OC3COC4OCCC34)cc12 (centres unmarked) [Compound 217] | < 0.1 nM | < 0.3 nM | 20 nM | 30 nM | 2.3 nM | < 0.1 nM |  |  |  |  |  |  |  |
| CC(C)CN(CC(O)C(Cc1ccccc1)NC(=O)OC1COC2OCCC12)S(=O)(=O)c1ccc2onc(CNCCCN3CCCC3=O)c2c1 (centres unmarked) [Compound 237] | < 0.1 nM | < 0.3 nM | 85 nM | 41 nM | 31 nM | 0.27 nM |  |  |  |  |  |  |  |
| CC(=O)NCc1noc2ccc(S(=O)(=O)N(CC(C)C)CC(O)C(Cc3ccccc3)NC(=O)OC3COC4OCCC34)cc12 (centres unmarked) [Compound 214] | < 0.1 nM | < 0.3 nM | 31 nM | 28 nM | 42 nM | < 0.1 nM |  |  |  |  |  |  |  |
| CC(C)CN(CC(O)C(Cc1ccccc1)NC(=O)OC1COC2OCCC12)S(=O)(=O)c1ccc2onc(Cn3ccnc3)c2c1 (centres unmarked) [Compound 216] | < 0.1 nM | < 0.3 nM | 250 nM | 32 nM | 20 nM | 1.7 nM |  |  |  |  |  |  |  |
| CC(C)CN(CC(O)C(Cc1ccccc1)NC(=O)OC1COC2OCCC12)S(=O)(=O)c1ccc2onc(CNC3CCCC3)c2c1 (centres unmarked) [Compound 235] | < 0.1 nM | < 0.3 nM | 120 nM | 15 nM | 4.2 nM | 0.43 nM |  |  |  |  |  |  |  |
| Cc1coc2ccc(S(=O)(=O)N(CC(C)C)CC(O)C(Cc3ccccc3)NC(=O)OC3COC4OCCC34)cc12 (centres unmarked) [Compound 103] |  |  | 300 nM | 35 nM |  |  | < 0.1 nM | < 0.3 nM | 3.7 nM | 0.48 nM |  |  |  |
| CC(C)CN(CC(O)C(Cc1ccccc1)NC(=O)OC1COC2OCCC12)S(=O)(=O)c1ccc2onc(CN)c2c1 (centres unmarked) [Compound 203] | < 0.1 nM | < 0.3 nM | 120 nM | 70 nM | 22 nM | 0.71 nM |  |  |  |  |  |  |  |
| CC(C)CN(C[C@@H](O)[C@H](Cc1ccccc1)NC(=O)OC1COC2OCCC12)S(=O)(=O)c1ccc2occ(CNCC(=O)OC(C)(C)C)c2c1 (some centres unmarked) [Compound 110] |  |  |  |  |  |  | < 0.1 nM | < 0.3 nM |  | 0.32 nM | 62 nM | 33 nM | 3.4 nM |
| CC(C)CN(CC(O)C(Cc1ccccc1)NC(=O)OC1COC2OCCC12)S(=O)(=O)c1ccc2[nH]nc(NCc3ccccc3)c2c1 (centres unmarked) [Compound 306] |  |  | 95 nM | 35 nM |  |  | 0.1 nM | < 0.3 nM | 5.5 nM | 1.1 nM |  |  |  |
| CC(C)CN(CC(O)C(Cc1ccccc1)NC(=O)OC1COC2OCCC12)S(=O)(=O)c1ccc2onc(CNCCOc3ccccc3)c2c1 (centres unmarked) [Compound 230] | < 0.1 nM | < 0.3 nM | 57 nM | 20 nM | 4.8 nM | 0.14 nM |  |  |  |  |  |  |  |
| Cc1n[nH]c2ccc(S(=O)(=O)N(CC(C)C)CC(O)C(Cc3ccccc3)NC(=O)OC3COC4OCCC34)cc12 (centres unmarked) [Compound 301, {1-Benzyl-2-hydroxy-3-[isobutyl-(3-methyl-1H-indazole-5-sulfonyl)-amino]-propyl}-carbamic acid hexahydro-furo[2,3-b]furan-3-yl ester] |  |  | 80 nM | 70 nM |  |  | < 0.1 nM | < 0.3 nM | 8 nM | 0.23 nM |  |  |  |
| CCOC(=O)NCc1coc2ccc(S(=O)(=O)N(CC(C)C)C[C@@H](O)[C@H](Cc3ccccc3)NC(=O)OC3COC4OCCC34)cc12 (some centres unmarked) [Compound 112] |  |  |  |  |  |  | < 0.1 nM | < 0.3 nM |  | < 0.1 nM | 29 nM | 11 nM | 1.8 nM |
| CC(=O)OCc1coc2ccc(S(=O)(=O)N(CC(C)C)CC(O)C(Cc3ccccc3)NC(=O)OC3COC4OCCC34)cc12 (centres unmarked) [Compound 122] |  |  | 110 nM | 11 nM |  |  | < 0.1 nM | < 0.3 nM | 5.9 nM | 0.27 nM |  |  |  |
| CC(C)CN(C[C@@H](O)[C@H](Cc1ccccc1)NC(=O)OC1CO[C@H]2OCC[C@@H]12)S(=O)(=O)c1ccc2c(c1)C(C)CO2 (some centres unmarked) |  |  | 900 nM | 56 nM |  |  | < 0.1 nM |  | 1.5 nM | 7.5 nM |  |  |  |

— patent US20100056596A1, “RESISTANCE-REPELLENT RETROVIRAL PROTEASE INHIBITORS” (Sequoia Pharmaceuticals, priority 2004, published 2010)
